Patent US6500816B1, “Remedies for photochemotherapy” (Nippon Kayaku Kabushiki Kaisha, priority 1998, dated 2002)

Key:
[1] = Maximum absorption wavelength of the compounds; assay type: physicochemical
Source text: Some representative examples of the compounds utilizable as the photochemotherapeutic agent according to the present invention are shown below.

[2] = background art statement; cited from earlier work

Compound	Maximum absorption wavelength (λmax) [1]	maximum absorption wavelength [2]
CC1CC(C=CC=C/C=C2\CC(C)Cc3c(-c4ccccc4)cc(-c4ccccc4)[o+]c32)=C2OC(c3ccccc3)=CC(c3ccccc3)=C2C1 (stereo not drawn) [Polymethine type 4]	1045 nm	
CCN(CC)c1ccc(C(=CC=CC(=C2C=CC(=[N+](CC)CC)C=C2)c2ccc(N(CC)CC)cc2)c2ccc(N(CC)CC)cc2)cc1 [Polymethine type 1]	820 nm	
dihematoporphyrin [Photofrin]		363 nm
